Experimental data from paper PMC6269071, “New Quinoxaline Derivatives as Potential MT1 and MT2 Receptor Ligands” (Molecules, 2012).

Key:
[1] = target: T1, human melatonin MT1 receptor (Homo sapiens, UniProt P48039); experiment: 2-[125I]Iodomelatonin competitive binding, MT1; conditions: 2-[125I]Iodomelatonin radioligand; membranes of HEK or CHO cells; mean of at least three experiments; read-out: MT1 Ki (µM) ± SEM
T1 construct: expressed in transfected cells; host or cells: HEK or CHO cells, stably transfected; membrane preparations
Experimental: (§1) The binding affinity of the newly synthesized quinoxalines for MT1 and MT2 receptors was tested through competitive binding experiments using 2-[^125I]Iodomelatonin as radioligand.
(§2) Grown at confluence at 37 °C ([…]/5% CO2), they were harvested in PBS containing EDTA 2 mM and centrifuged at 1,000 g for 5 min (4 °C). The resulting pellet was suspended in Tris 5 mM (pH 7.5), containing EDTA 2 mM and homogenized using a Kinematica polytron. The homogenate was then centrifuged (95,000 g, 30 min, 4 °C) and the resulting pellet suspended in 75 mM Tris (pH 7.5), 12.5 mM MgCl2 and 2 mM EDTA. Aliquots of membrane preparations were stored at −80 °C until use.
(§3) 2-[^125I]Iodomelatonin binding assay conditions are essentially as previously described. Briefly, binding is initiated by the addition of membrane preparations from stable transfected HEK or CHO cells diluted in binding buffer (50 mM Tris-HCl buffer, pH 7.4, containing 5 mM MgCl2) to 2-[^125I]Iodomelatonin (25 or 200 pM for MT1 and MT2 receptors, respectively, expressed in HEK cells or 20 pM for MT1 and MT2 receptors expressed in CHO cells) and the tested drug. […] After 120 min of incubation at 37 °C, the reaction was stopped by rapid filtration through GF/B filters presoaked in 0.5% (v/v) polyethylenimine. Filters were washed three times with 1 mL of ice-cold 50 mM Tris-HCl buffer, pH 7.4. Data from dose-response curves (seven concentrations in duplicate) were analyzed using the program PRISM (Graph Pad Software Inc., San Diego, CA, USA) to yield IC50 (inhibitory concentration 50). Results were expressed as Ki using the Cheng and Prusoff equation: Ki = IC50/[1 + (L/KD)], where [L] is the concentration of radioligand used in the assay and KD, the dissociation constant of the radioligand characterizing the membrane preparation.

[2] = target: T2, human melatonin MT2 receptor (Homo sapiens, UniProt P49286); experiment: 2-[125I]Iodomelatonin competitive binding, MT2; conditions: for Ki: 2-[125I]Iodomelatonin radioligand, membranes of HEK or CHO cells, mean of at least three experiments, read-out: MT2 Ki (µM) ± SEM
T2 construct: expressed in transfected cells; host or cells: HEK or CHO cells, stably transfected; membrane preparations
T2 sequence (P49286 1-362): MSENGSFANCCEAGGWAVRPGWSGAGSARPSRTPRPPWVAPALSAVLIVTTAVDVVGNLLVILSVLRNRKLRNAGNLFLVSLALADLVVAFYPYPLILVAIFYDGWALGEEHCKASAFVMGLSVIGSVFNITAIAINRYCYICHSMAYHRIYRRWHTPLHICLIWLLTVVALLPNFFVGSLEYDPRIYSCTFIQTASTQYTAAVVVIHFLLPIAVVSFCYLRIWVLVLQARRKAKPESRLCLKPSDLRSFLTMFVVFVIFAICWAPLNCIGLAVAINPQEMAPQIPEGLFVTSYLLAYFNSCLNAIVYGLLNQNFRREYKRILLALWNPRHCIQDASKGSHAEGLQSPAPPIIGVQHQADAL
Experimental: as §1, §2, §3

[3] = target: T3, MT2 receptor (CHO-MT2 membranes) (Homo sapiens, UniProt P49286); experiment: [35S]GTPγS binding assay, MT2; assay type: biochemical; conditions: for functional profile at MT2 / EC50: [35S]GTPγS binding; for EC50: CHO membranes, read-out: MT2 EC50 ± SEM
T3 construct: expressed in transfected cells; host or cells: CHO cells, transfected; membranes
T3 sequence (P49286 1-362): T2 sequence (P49286 1-362)
Experimental: as §2
[^35S]GTPγS binding assay was performed according to published methodology. Briefly, membranes from transfected CHO cells expressing MT1 and MT2 receptor subtypes and compounds were diluted in binding buffer (20 mM HEPES, pH 7.4, 100 mM NaCl, 3 μM GDP, 3 mM MgCl2, and 20 μg/mL saponin). Incubation was started by the addition of 0.2 nM [^35S]GTPγS to membranes (20 μg/mL) and drugs, and further followed for 1h at room temperature.

T1 sequence (P48039 whole entry): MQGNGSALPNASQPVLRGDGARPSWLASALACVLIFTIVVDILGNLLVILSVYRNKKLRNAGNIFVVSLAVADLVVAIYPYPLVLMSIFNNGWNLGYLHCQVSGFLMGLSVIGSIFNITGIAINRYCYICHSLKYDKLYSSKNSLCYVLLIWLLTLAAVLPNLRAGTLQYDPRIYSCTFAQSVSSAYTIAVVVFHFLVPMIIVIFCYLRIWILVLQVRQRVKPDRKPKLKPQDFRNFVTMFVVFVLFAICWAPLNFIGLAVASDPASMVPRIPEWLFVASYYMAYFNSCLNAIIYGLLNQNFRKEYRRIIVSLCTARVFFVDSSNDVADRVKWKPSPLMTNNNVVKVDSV

Ki [1] | Ki [2] | functional profile at MT2 [3] | EC50 [3] | MT2/MT1 selectivity ratio ([2]; ratio of binding affinities MT1 vs MT2) | Emax ([3]; read-out: MT2 Emax ± SEM (%)) | Structure (SMILES)
0.75 ± 0.36 µM | 1.1 ± 0.03 µM | – | – | – | – | CCCC(=O)NCc1nc2ccccc2nc1OC [Compound 3c, N-(3-Methoxyquinoxalin-2-ylmethyl)-butyramide]
3.4 ± 1.37 µM | 10.5 ± 2.96 µM | – | – | – | – | COc1nc2ccc(NC(=O)C(C)C)cc2nc1OC [Compound 6d, N-(2,3-Dimethoxyquinoxalin-6-yl)isobutyramide]
> 1000 µM | > 1000 µM | – | – | – | – | COc1nc2ccccc2nc1CNC(=O)Nc1ccccc1 [Compound 3i, 1-(3-Methoxyquinoxalin-2-ylmethyl)-3-phenyl-urea]
3.41 ± 1.89 µM | 28.8 µM | – | – | – | – | CCNC(=O)Nc1ccc2nc(OC)c(OC)nc2c1 [Compound 6f, 1-(2,3-Dimethoxyquinoxalin-6-yl)-3-ethylurea]
17.6 ± 7.81 µM | 4.36 ± 1.22 µM | – | – | – | – | CCC(=O)Nc1ccc2nc(OC)c(OC)nc2c1 [Compound 6b, N-(2,3-Dimethoxyquinoxalin-6-yl)propionamide]
> 1000 µM | 0.44 µM | – | – | – | – | CCCNC(=O)NCc1nc2ccccc2nc1OC [Compound 3g, 1-(3-Methoxyquinoxalin-2-ylmethyl)-3-propylurea]
> 1000 µM | 0.4 ± 0.13 µM | – | – | – | – | CCNC(=O)NCc1nc2ccccc2nc1OC [Compound 3f, Ethyl-3-(3-methoxyquinoxalin-2-ylmethyl)urea]
> 1000 µM | > 1000 µM | – | – | – | – | COc1ccc2ncc(CNC(=O)c3ccccc3)nc2c1 [Compound 10e, N-[(7-Methoxyquinoxalin-2-yl)methyl]benzamide]
2.6 ± 0.23 µM | 0.66 ± 0.01 µM | – | – | – | – | CCC(=O)NCc1nc2ccccc2nc1OC [Compound 3b, N-(3-Methoxyquinoxalin-2-ylmethyl)-propionamide]
1.23 ± 0.32 µM | 0.47 ± 0.02 µM | – | – | – | – | COc1nc2ccccc2nc1CNC(=O)C(C)C [Compound 3d, N-(3-Methoxyquinoxalin-2-ylmethyl)-isobutyramide]
20 ± 1.82 µM | 0.08 µM | antagonist | > 10 µM | 250 | – | COc1nc2ccc(NC(C)=O)cc2nc1OC [Compound 6a, N-(2,3-Dimethoxyquinoxalin-6-yl)acetamide]
> 1000 µM | > 1000 µM | – | – | – | – | COc1nc2ccc(NC(=O)c3ccccc3)cc2nc1OC [Compound 6e, N-(2,3-Dimethoxyquinoxalin-6-yl)benzamide]
> 1000 µM | > 1000 µM | – | – | – | – | COc1nc2ccc(NC(=O)Nc3ccccc3)cc2nc1OC [Compound 6i, 1-(2,3-Dimethoxyquinoxalin-6-yl)-3-phenylurea]
0.32 ± 0.04 µM | 0.16 µM | – | – | – | – | COc1ccc2ncc(CNC(=O)C(C)C)nc2c1 [Compound 10d, N-[(7-Methoxyquinoxalin-2-yl)methyl]isobutyramide]
> 1000 µM | 0.34 ± 0.15 µM | – | – | – | – | CCC(=O)NCc1cnc2ccc(OC)cc2n1 [Compound 10b, N-[(7-Methoxyquinoxalin-2-yl)methyl]propionamide]
> 1000 µM | > 1000 µM | – | – | – | – | COc1nc2ccccc2nc1CNC(=O)NC(C)C [Compound 3h, 1-Isopropyl-3-(3-methoxyquinoxalin-2-ylmethyl)urea]
11.5 ± 2.8 µM | 1.35 ± 0.31 µM | full agonist | 1.3 ± 0.26 µM | – | 84 ± 9.5% | CCCC(=O)Nc1ccc2nc(OC)c(OC)nc2c1 [Compound 6c, N-(2,3-Dimethoxyquinoxalin-6-yl)butyramide]
2.98 ± 0.36 µM | 0.88 ± 0.3 µM | – | – | – | – | COc1nc2ccccc2nc1CNC(C)=O [Compound 3a, N-(3-Methoxyquinoxalin-2-ylmethyl)-acetamide]
1.63 ± 0.44 µM | 0.489 ± 0.07 µM | – | – | – | – | CCCNC(=O)Nc1ccc2nc(OC)c(OC)nc2c1 [Compound 6g, 1-(2,3-Dimethoxyquinoxalin-6-yl)-3-propylurea]
0.21 ± 0.11 µM | 0.1 ± 0.01 µM | – | – | – | – | CCCC(=O)NCc1cnc2ccc(OC)cc2n1 [Compound 10c, N-[(7-Methoxyquinoxalin-2-yl)methyl]butyramide]
> 1000 µM | > 1000 µM | – | – | – | – | COc1nc2ccccc2nc1CNC(=O)c1ccccc1 [Compound 3e, N-(3-Methoxy-quinoxalin-2-ylmethyl)-benzamide]
> 1000 µM | > 1000 µM | – | – | – | – | COc1ccc2ncc(CNC(C)=O)nc2c1 [Compound 10a, N-[(7-Methoxyquinoxalin-2-yl)methyl]acetamide]
> 1000 µM | > 1000 µM | – | – | – | – | COc1nc2ccc(NC(=O)NC(C)C)cc2nc1OC [Compound 6h, 1-(2,3-Dimethoxyquinoxalin-6-yl)-3-isopropylurea]
